Values of other authors as cited in patent publication US4177261A, “Pharmaceutical composition and method of stimulating blood circulation and wound healing” (Thera Gesellschaft fur Patentverwertung mbH, priority 1977, dated 1979).
No end group written: not given here.

Conditions: intra-cuticular injection

| Substance | Quantity causing vehement pain reactions |
| --- | --- |
| RPPGFSPFR [Brady kinin, (NH2) arginine-proline-proline-glycine-phenylalanine-serine-proline-phenylalanine-arginine (COOH)] | about 0.1 micrograms per 1 milliliter of solution |
| kallidin: decapeptide; Bradykinin extended at the amino end by an additional lysine radical | about 0.1 micrograms per 1 milliliter of solution |
